Measured values from ChEMBL document CHEMBL2062499, “Synthesis of benzofuran based 1,3,5-substituted pyrazole derivatives: as a new class of potent antioxidants and antimicrobials--a novel accost to amend biocompatibility” (Bioorg Med Chem Lett, 2012).

Columns and labels:
Aspergillus flavus [1] = assay: Antifungal activity against Aspergillus flavus MTCC 3306 at 0.5 mg/ml after 72 hrs by well plate method; type: functional; conditions: MTCC 3306, 72 h, read-out: DIZ
[2] = system: Radical scavenging activity; assay: Antioxidant activity assessed as DPPH radical scavenging activity after 20 mins by UV-Vis spectrophotometric analysis; type: functional
Staphylococcus aureus [3] = assay: Antibacterial activity Staphylococcus aureus ATCC 25923 at 0.5 mg/ml after 24 hrs by well plate method; type: functional; conditions: ATCC 25923, 24 h, read-out: DIZ
Escherichia coli [4] = assay: Antibacterial activity Escherichia coli ATCC 25922 at 1 mg/ml after 24 hrs by well plate method; type: functional; conditions: ATCC 25922, 24 h, read-out: DIZ
[5] = Antifungal activity against Chrysosporium keratinophilum MTCC 3017 at 1 mg/ml after 72 hrs by well plate method; type: functional
Liver microsomes = assay: Antioxidant activity in Wistar rat liver microsomes assessed as inhibition of microsomal lipid peroxidation after 15 mins by MDA-TBA assay; type: functional, Microsome
Candida albicans [6] = assay: Antifungal activity against Candida albicans MTCC 2827 at 0.5 mg/ml after 72 hrs by well plate method; type: functional; conditions: MTCC 2827, 72 h, read-out: DIZ
Candida albicans [7] = assay: Antifungal activity against Candida albicans MTCC 2827 at 1 mg/ml after 72 hrs by well plate method; type: functional; conditions: MTCC 2827, 72 h, read-out: DIZ
Pseudomonas aeruginosa [8] = assay: Antibacterial activity Pseudomonas aeruginosa ATCC 27853 at 1 mg/ml after 24 hrs by well plate method; type: functional; conditions: ATCC 27853, 24 h, read-out: DIZ
Escherichia coli [9] = assay: Antibacterial activity Escherichia coli ATCC 25922 at 0.5 mg/ml after 24 hrs by well plate method; type: functional; conditions: ATCC 25922, 24 h, read-out: DIZ
Staphylococcus aureus [10] = assay: Antibacterial activity Staphylococcus aureus ATCC 25923 at 1 mg/ml after 24 hrs by well plate method; type: functional; conditions: ATCC 25923, 24 h, read-out: DIZ
Aspergillus flavus [11] = assay: Antifungal activity against Aspergillus flavus MTCC 3306 at 1 mg/ml after 72 hrs by well plate method; type: functional; conditions: MTCC 3306, 72 h, read-out: DIZ
[12] = Antifungal activity against Chrysosporium keratinophilum MTCC 3017 at 0.5 mg/ml after 72 hrs by well plate method; type: functional
Pseudomonas aeruginosa [13] = assay: Antibacterial activity Pseudomonas aeruginosa ATCC 27853 at 0.5 mg/ml after 24 hrs by well plate method; type: functional; conditions: ATCC 27853, 24 h, read-out: DIZ

Row | SMILES | zone of inhibition at 500 µg/mL (Aspergillus flavus [1]) [mm] | IC50 [2] [uM/ml] | zone of inhibition at 500 µg/mL (Staphylococcus aureus [3]) [mm] | zone of inhibition at 1000 µg/mL (Escherichia coli [4]) [mm] | inhibition zone (IZ) [5] [mm] | IC50 (Liver microsomes) [uM/ml] | zone of inhibition at 500 µg/mL (Candida albicans [6]) [mm] | zone of inhibition at 1000 µg/mL (Candida albicans [7]) [mm] | zone of inhibition at 1000 µg/mL (Pseudomonas aeruginosa [8]) [mm] | zone of inhibition at 500 µg/mL (Escherichia coli [9]) [mm] | zone of inhibition at 1000 µg/mL (Staphylococcus aureus [10]) [mm] | zone of inhibition at 1000 µg/mL (Aspergillus flavus [11]) [mm] | inhibition zone (IZ) [12] [mm] | zone of inhibition at 500 µg/mL (Pseudomonas aeruginosa [13]) [mm]
1 | COc1cc(C2CC(c3cc4ccccc4o3)=NN2C(=O)Nc2cccc(O)c2)ccc1O (configuration not stated) | 1 | 21 | 1 | 3 | 2 | 24 | 1 | 3 | 3 | 1 | 2 | 2 | 1 | 2
2 | COc1cc(C2CC(c3cc4ccccc4o3)=NN2C(=O)Nc2ccc([N+](=O)[O-])cc2)ccc1O (configuration not stated) | 3 | 103 | 6 | 15 | 4 | 113 | 4 | 5 | 9 | 9 | 8 | 5 | 3 | 7
3 | COc1cc(C2CC(c3cc4ccccc4o3)=NN2)ccc1O (configuration not stated) | 0 | 100 | 0 | 0 | 1 | 112 | 1 | 1 | 0 | 0 | 0 | 0 | 0 | 0
4 | COc1cc(C2CC(c3cc4ccccc4o3)=NN2C(=O)Nc2ccc(F)cc2)ccc1O (configuration not stated) | 9 | 110 | 14 | 18 | 15 | 125 | 21 | 24 | 19 | 12 | 16 | 11 | 11 | 16
5 | COc1cc(C2CC(c3cc4ccccc4o3)=NN2C(=O)Nc2ccc(C)cc2)ccc1O (configuration not stated) | 2 | 37 | 3 | 5 | 3 | 44 | 1 | 3 | 4 | 4 | 4 | 3 | 1 | 3
6 | COc1cc(C2CC(c3cc4ccccc4o3)=NN2C(=O)Nc2ccc(Cl)cc2)ccc1O (configuration not stated) | 7 | 107 | 4 | 17 | 9 | 121 | 17 | 20 | 18 | 11 | 6 | 10 | 7 | 15
7 | COc1cc(C2CC(c3cc4ccccc4o3)=NN2C(=O)Nc2ccccc2O)ccc1O (configuration not stated) | 1 | 19 | 1 | 3 | 4 | 22 | 3 | 4 | 4 | 1 | 2 | 2 | 2 | 2
8 | COc1cc(NC(=O)N2N=C(c3cc4ccccc4o3)CC2c2ccc(O)c(OC)c2)ccc1O (configuration not stated) | 1 | 10 | 2 | 2 | 3 | 12 | 1 | 2 | 2 | 1 | 3 | 2 | 2 | 1
